Test results taken from patent US8492106B2, “Identification methods for ergothioneine transporter modulators and therapeutic uses thereof” (Universitat Zu Koln, priority 2004, dated 2013).
Where two headings read alike, the source gives them in different places. Blank lines part the entries; values can stand above or below the molecule they belong to.

How the values were obtained:
ETTh = biological target: T1, ETTh (Homo sapiens, UniProt Q9H015); test: Substrate uptake into 293-FIT-ETTh cells expressing ETTh (LC-MS/MS and radiotracer assays); type: cell-based; conditions: for Km: read-out: Km (affinity of ETTh)
T1 construct: expressed in transfected cells
T1 sequence (Q9H015 1-551): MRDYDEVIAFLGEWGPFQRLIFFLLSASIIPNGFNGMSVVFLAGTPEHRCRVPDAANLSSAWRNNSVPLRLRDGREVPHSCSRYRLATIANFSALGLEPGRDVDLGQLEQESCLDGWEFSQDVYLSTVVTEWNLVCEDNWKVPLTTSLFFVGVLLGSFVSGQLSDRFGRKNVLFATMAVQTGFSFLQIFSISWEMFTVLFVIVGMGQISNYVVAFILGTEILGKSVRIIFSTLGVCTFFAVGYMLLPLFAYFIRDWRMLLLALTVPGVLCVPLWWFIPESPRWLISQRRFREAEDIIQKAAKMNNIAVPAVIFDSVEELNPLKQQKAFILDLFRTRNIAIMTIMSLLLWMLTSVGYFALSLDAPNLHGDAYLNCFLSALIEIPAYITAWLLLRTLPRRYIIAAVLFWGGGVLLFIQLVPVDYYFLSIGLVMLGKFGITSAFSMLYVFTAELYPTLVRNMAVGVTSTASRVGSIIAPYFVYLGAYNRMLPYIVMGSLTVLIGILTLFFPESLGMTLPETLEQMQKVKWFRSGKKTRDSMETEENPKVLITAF
Protocol: Substrate concentration was 10 μmol/l for all LC-MS/MS assays (gamma-butyryl betaine, N-methyl proline (alias hygric acid), hydroxyproline betaine (alias betonicine), proline betaine (alias stachydrine), and ergothioneine) and 0.1 μmol/l for all radiotracer assays.
(§1) FIG. 3: Determination of Km and Vmax of ergiothioneine transport via ETTh. 293-FIT-ETTh (filled circles) or 293-FIT-NT (open circles) cell monolayers were incubated for 1 min at 37° C. with various ET concentrations in KRH buffer. After thorough washing, cells were lysed with 4 mmol/l HClO4. Lysates were analysed for ET content by LC-MS/MS. Each circle represents a single dish. Uptake into control cells was modeled with a straight line through the origin.
The cDNA of ETTh (EMBL/GenBank accession number Y09881) was inserted into the eukaryotic expression vector pcDNA5/FRT/TO (Invitrogen) to yield pcDNA5/FRT/TO/ETTh. This plasmid was cotransfected together with plasmid pOG44 by lipofection with Tfx-50 (Promega) into Flp-In T-REx 293 cells (Invitrogen; referred to as 293-FIT-NT in the remainder). After antibiotic selection with hygromycin B and blasticidin S, the surviving cells, used as a pool and designated as 293-FIT-ETTh, were assayed for ETT transcripts by Northern analysis.
The cell lines 293-FIT-ETTh and 293-FIT-NT (original cell line, not transfected), grown as monolayers in 6 cm diameter polystyrol dishes and induced with 1 μg/ml doxycycline for 20 h, were incubated for 1 min at 37° C. with 2 ml of a mixture of human plasma (50%) and KRH buffer (50%). KRH buffer (Krebs-Ringer-Henseleit) contains 5.6 mM (+)-Glucose, 125 mM NaCl, 4.8 mM KCl, 1.2 mM KH2PO4, 1.2 mM CaCl2, 1.2 mM MgSO4, and 25 mM HEPES-NaOH pH 7.4. The dishes were rinsed 4 times with 3 ml ice-cold KRH and subsequently incubated with 1 ml of 4 mmol/l HClO4 to release the cell contents. 15 μl of lysate were analyzed by LC-MS (ESI, positive mode) using a Thermo Finnigan TSQ Quantum triple quad mass spectrometer equipped with a Waters Atlantis HILIC silica column (length 100 mm, diameter 3 mm, particle size 5 μm). The solvent for isocratic chromatography (flow rate 250 μl/min) was made of methanol (70%) and 0.1% formic acid (30%). Data sets were compared by LC-MS Difference Shading software (see separate patent application).
A series of compounds structurally related to either stachydrine or carnitine, the key substrate of the related OCTN2 transporter was tested, for transport by ETTh. […] LC-MS/MS determines total cellular content of a particular analyte.

[1] = in vivo
[2] = Cat, blood; cited from earlier work
[3] = cited from earlier work
[4] = Man, blood; cited from earlier work
[5] = biological target: T2, carnitine transporter OCTN2 from rat (Rattus norvegicus, UniProt O70594); test: ET transport by carnitine transporter OCTN2; type: cell-based
T2 sequence (O70594 1-557): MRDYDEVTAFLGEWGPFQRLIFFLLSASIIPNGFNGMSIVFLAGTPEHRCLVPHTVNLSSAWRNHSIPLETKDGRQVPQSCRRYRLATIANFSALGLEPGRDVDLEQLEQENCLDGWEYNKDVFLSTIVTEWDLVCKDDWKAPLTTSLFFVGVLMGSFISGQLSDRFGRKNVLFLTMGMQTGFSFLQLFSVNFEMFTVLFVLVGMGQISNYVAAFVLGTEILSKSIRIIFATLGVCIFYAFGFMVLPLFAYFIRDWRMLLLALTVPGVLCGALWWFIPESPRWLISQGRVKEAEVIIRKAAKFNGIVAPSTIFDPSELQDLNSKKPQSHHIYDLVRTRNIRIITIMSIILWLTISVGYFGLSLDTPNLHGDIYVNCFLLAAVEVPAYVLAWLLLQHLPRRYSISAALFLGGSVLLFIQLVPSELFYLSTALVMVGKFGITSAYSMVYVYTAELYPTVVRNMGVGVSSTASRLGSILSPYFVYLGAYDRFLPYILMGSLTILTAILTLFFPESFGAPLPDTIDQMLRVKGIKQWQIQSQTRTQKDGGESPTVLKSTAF
From the text: If the substrate concentration is much smaller than the affinity of the transporter (=Km), then the clearance is directly proportional to the transport efficiency, defined, by analogy to catalytic efficiency for enzymes, as kcat/Km, where kcat is the turnover number of an individual transporter molecule (note that Vmax=kcat*Etotal, where Etotal is the number of transporter molecules).

[6] = Fowl, blood; cited from earlier work
[7] = Sheep, blood; cited from earlier work
[8] = Rabbit, blood; cited from earlier work
[9] = Pig, blood; cited from earlier work
[10] = Rat, blood; cited from earlier work
[11] = Guinea Pig, blood; cited from earlier work
293-FIT-NT cells = test: ET uptake into control 293-FIT-NT cells (no ETT expression); type: cell-based, human
Protocol: as §1

[12] = Accumulation of ergothioneine in the lens of the eye
[13] = Ox, blood; cited from earlier work
[14] = Dog, blood; cited from earlier work
[15] = 293-FIT-ETTh cells, 1 min at 37° C., KRH buffer, LC-MS/MS
[16] = LC-MS/MS assay, substrate 10 μmol/l, 1 min at 37° C.

SMILES: CC[N+](CC)(CC)CC [TEA, tetraethyl ammonium]
transport by ETTh (in words) (ETTh; radiotracer assay, substrate 0.1 μmol/l): negligible

plasma levels [1]: about 10 μmol/l | Km (ETTh; [15]): 300 µM | transport by ETTh (in words) (ETTh; [16]): accumulated | transport by ETTh (in words) (ETTh; LC-MS/MS assay, substrate 10 μmol/l, 1 min at 37° C., listed as proline betaine): good substrates
SMILES: C[N+]1(C)CCC[C@H]1C(=O)[O-] [stachydrine]

SMILES: C[N+](C)(C)[C@@H](Cc1c[nH]c(=S)[nH]1)C(=O)[O-] [ergothioneine, 2-mercaptohistidine trimethylbetaine]
Ergothioneine concentration [2]: 0.5-2 mg/100 ml blood | concentration in human and mammalian tissue (estimated) [3]: 1000 to 2000 µM | Ergothioneine concentration [4]: 1-4 mg/100 ml blood | acceptance as substrate by OCTN2 [5]: did not accept ET as a substrate at all | Ergothioneine concentration [6]: 2-10 mg/100 ml blood | Ergothioneine concentration [7]: 2-6 mg/100 ml blood | Ergothioneine concentration [8]: 1-10 mg/100 ml blood | Ergothioneine concentration [9]: 3-27 mg/100 ml blood | Ergothioneine concentration [10]: 1-6 mg/100 ml blood | Ergothioneine concentration [11]: 1-4 mg/100 ml blood | true clearance (Vmax divided by Km) (ETTh; 293-FIT-ETTh cells): 190 μl/min/mg protein | Vmax (ETTh; [15]): 4.2 nmol/min/mg protein | Km (ETTh; [15]): 22 µM | transport by ETTh (in words) (ETTh; [16]): extremely high transport activity | ETTh transports ET better than stachydrine (ETTh; transport efficiency, ET versus stachydrine): 10 fold | slope d of uptake into control cells (293-FIT-NT cells; 293-FIT-NT control cells, 1 min at 37° C., KRH buffer): 0.32 μl/min/mg protein | uptake into cells without expression of ETT (in words) (293-FIT-NT cells; without expression of ETT): virtually no uptake | accumulation in the lens of the eye (in words) [12]: significant accumulation | Ergothioneine concentration [13]: 0.5-2 mg/100 ml blood | Ergothioneine concentration [14]: 3-6 mg/100 ml blood

transport by ETTh (in words) (ETTh; [16]): good substrates
SMILES: C[N+]1(C)C[C@@H](O)C[C@@H]1C(=O)[O-] [hydroxyproline betaine]
